Consider 1 compound from patent US12673038B2, “Antimycotic methoxyflavone and fluconazole combination for inhibiting cryptococcus” (Karl-Franzens-Universität Graz, priority 2019, dated 2026).

For one test, the system named is C. glabrata BG2 biofilms. In words: Biofilm inhibition concentration (BIC), XTT staining. It counts as cell-based, Candida glabrata. The note with it: Nakaseomyces glabratus, BG2BIOFILMS, C. glabrata BG2 biofilm formation, mean±SEM, read-out: BIC-50. For orientation: Tetrazolium dyes change colour on reduction, which living cells bring about.
The subject of the next test is C. albicans. Description: In vitro antifungal activity of flavone in combination with azoles, growth via OD490. It is filed as cell-based, Candida albicans. The note with it: OD490, flavone plus azole vs each alone.
Test [1] deals with S. cerevisiae BY4741. In words: AnnexinV/PI co-staining for cell death markers (flow cytometry). It is filed as cell-based, Saccharomyces cerevisiae. The note with it: day 3 after treatment, indicated concentrations. Here is the method: S. cerevisiae BY4741 cells were grown in SMD minimal media to mid-log phase and then treated with the indicated concentrations of 5-MF; control cells were treated with the same amount of solvent (DMSO). (A) Clonogenicity was assayed by plating 500 cells on YPD agar plates and colony forming units (CFUs) were counted to calculate survival rates. (B) Yeast cells were analyzed for cell death markers via AnnV/PI co-staining using flow cytometry. (C) The accumulation of reactive oxygen species was monitored by dihydrotethidium (DHE) to ethidium (Eth) conversion using flow cytometry. Assays in (A-C) were performed on day 3 after treatment. […] Data was analyzed by one-way ANOVA and corrected for multiple comparison using a Bonferroni post-hoc test. ns: not significant, * p<0.05, *** p<0.001, **** p<0.0001. […] Cell death markers were assessed by AnnexinV/PI co-staining. Therefore, 1-2×10^7 cells were harvested and treated with 3 μL […]; Sigma, Germany) and 15 μL glucuronidase/arylsulfatase (4.5 U/mL; Roche, Austria) for sphaeroblastation (60 min at 28° C. and 145 rpm). Resulting sphaeroblasts were co-stained with AnnexinV (Roche, Austria) and PI (Sigma, Germany) and analyzed via flow cytometry, using an LSRII Fortessa (BD, Ex: 488 nm; Em: 695 nm for PI and 530 nm for FITC). At least 30,000 cells were analyzed for each sample.

In test [2] the test system is S. cerevisiae BY4741. In words: Clonogenic survival assay (CFU plating). It counts as cell-based, Saccharomyces cerevisiae. The note with it: 200 μM 5-MF, day 3 after treatment, untreated control 100%. The protocol:
S. cerevisiae BY4741 cells were grown in SMD minimal media to mid-log phase and then treated with the indicated concentrations of 5-MF; control cells were treated with the same amount of solvent (DMSO). (A) Clonogenicity was assayed by plating 500 cells on YPD agar plates and colony forming units (CFUs) were counted to calculate survival rates. (B) Yeast cells were analyzed for cell death markers via AnnV/PI co-staining using flow cytometry. (C) The accumulation of reactive oxygen species was monitored by dihydrotethidium (DHE) to ethidium (Eth) conversion using flow cytometry. Assays in (A-C) were performed on day 3 after treatment. […] Data was analyzed by one-way ANOVA and corrected for multiple comparison using a Bonferroni post-hoc test. ns: not significant, * p<0.05, *** p<0.001, **** p<0.0001. […] Yeast strains were streaked on YPD agar plates and allowed to grow for two days at 28° C. or 30° C., plates were then stored for up to one week at 4° C. […] Survival upon treatment with substances or combinations was analyzed by plating serial dilutions of treated cultures onto YPD agar plates. Plates were incubated for two days at 28° C., colony forming units (CFUs) were counted and survival was calculated compared to the untreated control.

For another test, the system named is C. glabrata BG2. In words: MIC determination, CLSI protocol M27-A3, OD490. It counts as cell-based, Candida glabrata. The note with it: Nakaseomyces glabratus; C. glabrata BG2 planktonic growth, mean±SEM.
The subject of the next test is S. cerevisiae. In words: MIC determination, CLSI protocol M27-A3, OD490. It counts as cell-based. The following applies: Saccharomyces cerevisiae; S. cerevisiae planktonic growth, 50% reduction vs control, mean±SEM. Here is the method: S. cerevisiae BY4741 cells were grown in SMD minimal media to mid-log phase and then treated with the indicated concentrations of 5-MF; control cells were treated with the same amount of solvent (DMSO). (A) Clonogenicity was assayed by plating 500 cells on YPD agar plates and colony forming units (CFUs) were counted to calculate survival rates. (B) Yeast cells were analyzed for cell death markers via AnnV/PI co-staining using flow cytometry. (C) The accumulation of reactive oxygen species was monitored by dihydrotethidium (DHE) to ethidium (Eth) conversion using flow cytometry. Assays in (A-C) were performed on day 3 after treatment. […] Data was analyzed by one-way ANOVA and corrected for multiple comparison using a Bonferroni post-hoc test. ns: not significant, * p<0.05, *** p<0.001, **** p<0.0001. […] The minimal inhibitory concentration (MIC) was determined following the standard Clinical and Laboratory Standards Institute (CLSI) protocol M27 (Rex JH, and Clinical and Laboratory Standards Institute (2008). Reference method for broth dilution antifungal susceptibility testing of yeasts: approved standard, 3rd ed. National Committee for Clinical Laboratory Standards, Wayne, PA) for yeast strains or the standard CLSI protocol […] […] After incubation, OD490 values were measured using 96-well plate reader and growth capacity was analyzed by setting the corresponding control to 100%. […]

In a further test the test system is C. albicans SC5314. Description: MIC determination, CLSI protocol M27-A3, OD490. The note with it: C. albicans SC5314, 50 μM 5-MF, untreated control 100%. It is filed as cell-based, Candida albicans.

Values after ≈ are worked out from the molar mass of the structure shown.

Broadly, the MIC50 is the lowest concentration that inhibits either 50% of growth or 50% of the strains tested, depending on the study. Higher therefore signals lower susceptibility. `COc1cccc2oc(-c3ccccc3)cc(=O)c12` [5-MF, 5-methoxyflavone]: in the test with C. glabrata BG2 biofilms, the IC50 was 224 ± 15.6 µM. Also, in the test with C. albicans, the “enhancement of the antifungal activity of azoles in the presence of the flavone” value is given as “enhancement of the antifungal activity”. Further, the “cell death markers, PI-positive fraction (AnnV/PI co-staining)” value with S. cerevisiae BY4741 [1] is reported as “mainly increased the PI-positive fraction in a concentration-dependent manner”. Moreover, the “yeast survival (clonogenic assay, CFUs)” value with S. cerevisiae BY4741 [2] stood at 31%. In addition, the MIC50 against C. glabrata BG2 was determined as 202 ± 35.6 µM (≈ 50.9 µg/mL); against S. cerevisiae, 90.6 ± 12.4 µM (≈ 22.9 µg/mL). The “growth of planktonic cells compared to untreated cells” value with C. albicans SC5314 is on record as “about 60%”.
